Here are results for 13 molecules from ChEMBL document CHEMBL1201862, “PubChem BioAssay data set” (2004).

Active and inactive are the calls of the source. Some results are limits rather than exact numbers.

Series [1] has as its target E3 ubiquitin-protein ligase XIAP (Homo sapiens, UniProt P98170). Briefly: Counter Screen using XIAP-Bir3 for Chemical Antagonists of Bir1/2 domains of IAP-family anti-apoptotic proteins. [Related pubchem assays (depositor defined):AID1018, AID1449, AID1514, AID1638, AID1749, AID1750, AID488957, AID488963].
In series [2] the test system is Escherichia coli. The series is described as follows: microbe, parasite or virus in culture.
In series [3] the target is T1, Zinc finger protein mex-5 (Caenorhabditis elegans, UniProt Q9XUB2).
T1 sequence (Q9XUB2 whole entry): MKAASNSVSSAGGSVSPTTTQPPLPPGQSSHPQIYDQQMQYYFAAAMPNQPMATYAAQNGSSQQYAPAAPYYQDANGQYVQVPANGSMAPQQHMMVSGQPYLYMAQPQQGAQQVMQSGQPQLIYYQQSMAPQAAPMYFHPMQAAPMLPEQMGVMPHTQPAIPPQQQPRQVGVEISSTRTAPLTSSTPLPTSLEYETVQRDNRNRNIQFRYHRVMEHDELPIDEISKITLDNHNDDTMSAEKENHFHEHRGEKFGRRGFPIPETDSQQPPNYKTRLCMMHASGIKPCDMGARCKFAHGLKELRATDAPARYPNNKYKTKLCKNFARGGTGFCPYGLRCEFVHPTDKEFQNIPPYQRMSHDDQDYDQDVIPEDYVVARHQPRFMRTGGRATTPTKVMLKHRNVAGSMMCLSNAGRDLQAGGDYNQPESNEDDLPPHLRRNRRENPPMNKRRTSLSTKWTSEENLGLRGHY
The series is described as follows: MEX-5/TCR-2 RNA interaction inhibitors, dose response, biochemical, C. elegans, fluorescence polarization (AID 1960). (In general: In fluorescence polarisation assays a small probe gives low polarisation when free and higher when bound to something large.)

For series [4], the system named is Streptococcus. The series is described as follows: Group A Streptococcus viability loss, dose response, counter-screen for streptokinase expression inhibitor project, luminescence, BacTiterGlo (AID 1915).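 Further: potency for reduction of bacterial viability or growth.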 The series is classed as functional, organism-based. A general note: Counterscreens check selectivity or assay interference.
The target of series [5] is Neurotensin receptor type 1 (Homo sapiens, UniProt P30989). It is filed as functional.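 Further: Image-based confirmatory dose-response assay measuring agonist activity at NTR1; NTR1-expressing U2OS osteosarcoma cells imaged for beta-arrestin GFP spot formation; agonist potency where compounds increase beta-arrestin recruitment.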
In series [6] the test system is Streptococcus sp. 'group A'. The series is described as follows: growth inhibition of control SK(-) GAS strain, dose response, counter-screen for streptokinase expression inhibitor project, luminescence, kanamycin, BacTiterGlo, confirmation (AID 1900). The series is classed as functional, organism-based.
Series [7] deals with T2, RNA-binding protein pos-1 (Caenorhabditis elegans, UniProt G5EF15).
T2 sequence (G5EF15 whole entry): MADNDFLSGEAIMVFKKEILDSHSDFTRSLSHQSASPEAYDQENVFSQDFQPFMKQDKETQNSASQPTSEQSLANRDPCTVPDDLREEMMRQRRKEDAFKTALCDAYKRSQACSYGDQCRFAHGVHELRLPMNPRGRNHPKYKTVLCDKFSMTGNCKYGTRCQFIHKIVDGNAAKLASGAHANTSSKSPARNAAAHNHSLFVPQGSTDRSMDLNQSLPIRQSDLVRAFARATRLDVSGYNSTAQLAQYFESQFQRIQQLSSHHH
Briefly: inhibitors of POS-1/mex-3 RNA binding, dose response, biochemical, fluorescence polarization (AID 1964).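 Further: purified POS-1 fused to maltose binding protein made in E. coli; potency of compounds blocking POS-1 binding to fluorescent RNA.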

Series [8] addresses T3, Streptokinase A (Streptococcus pyogenes serotype M1, UniProt P10520).
T3 sequence (P10520 whole entry): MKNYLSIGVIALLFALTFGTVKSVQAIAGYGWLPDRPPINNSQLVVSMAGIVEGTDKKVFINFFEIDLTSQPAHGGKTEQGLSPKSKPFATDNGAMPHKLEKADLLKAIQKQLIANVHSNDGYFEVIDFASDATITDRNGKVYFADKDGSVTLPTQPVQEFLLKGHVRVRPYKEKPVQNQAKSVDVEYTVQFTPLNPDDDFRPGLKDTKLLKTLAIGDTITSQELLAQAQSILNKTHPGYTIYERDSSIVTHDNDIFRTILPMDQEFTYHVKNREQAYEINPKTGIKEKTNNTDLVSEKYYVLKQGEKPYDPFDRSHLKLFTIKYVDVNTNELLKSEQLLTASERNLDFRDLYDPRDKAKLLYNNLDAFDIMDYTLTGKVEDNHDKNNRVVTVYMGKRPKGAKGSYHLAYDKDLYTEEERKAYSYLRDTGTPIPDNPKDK
Briefly: S. pyogenes streptokinase expression inhibitors, potency, dose response, plasminogen activation absorbance, OD405 (AID 1914).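 Further: secreted streptokinase activity via plasminogen activation per viability signal from cell pellet.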 The series is classed as functional, Streptococcus pyogenes M1 GAS.

In series [9] the target is Cytochrome P450 2D6 (Homo sapiens, UniProt P10635).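 Further: CYP2D6 member of a cytochrome P450 panel assay.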
The target of series [10] is Peroxisome proliferator-activated receptor gamma/Nuclear receptor corepressor 2 (Homo sapiens, UniProt P37231+Q9Y618). The series is classed as functional.
In series [11] the target is Peroxisome proliferator-activated receptor gamma/Nuclear receptor coactivator 3 (Homo sapiens, UniProt P37231). The series is described as follows: TR-FRET dose response biochemical High Throughput Screening assay for agonists of the steroid receptor coactivator 3 (SRC-3) recruitment by the peroxisome proliferator-activated receptor gamma (PPAR gamma): non-selective agonists. [Related pubchem assays: 1301 (Confirmation screen.), 1048 (Primary screen.)]. It is filed as functional.

Series [12] addresses Peroxisome proliferator-activated receptor gamma/Nuclear receptor coactivator 2 (Homo sapiens, UniProt P37231). The series is described as follows: TR-FRET dose response biochemical High Throughput Screening assay for agonists of the steroid receptor coactivator 2 (SRC-2) recruitment by the peroxisome proliferator-activated receptor gamma (PPAR gamma): non-selective agonists. [Related pubchem assays: 1297, 1032 ]. It is filed as functional.

Series [13] addresses Peroxisome proliferator-activated receptor gamma/Nuclear receptor coactivator 1 (Homo sapiens, UniProt P37231). Briefly: TR-FRET dose response biochemical High Throughput Screening assay for agonists of the steroid receptor coactivator 1 (SRC-1) recruitment by the peroxisome proliferator-activated receptor gamma (PPAR gamma): non-selective agonists. [Related pubchem assays (depositor defined):AID1300, AID1808, AID504735, AID631]. The series is classed as protein assay. Background: Time-resolved FRET reads energy transfer from a long-lived donor to a nearby acceptor.

Series [14] concerns the target Photoreceptor-specific nuclear receptor (Homo sapiens, UniProt Q9Y5X4). It is filed as functional.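 Further: potency for compounds that break the NR2E3 corepressor complex and count as activators.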
Series [15] has as its target Keap1/Nrf2 (Homo sapiens, UniProt Q14145). Briefly: Keap1-Nrf2 protein-protein interaction inhibitors, dose response, biochemical, fluorescence polarization, cherry-picked samples (AID 588683).
Series [16] addresses T4, Carboxy-terminal domain RNA polymerase II polypeptide A small phosphatase 1 (Homo sapiens, UniProt Q9GZU7).
T4 sequence (Q9GZU7 whole entry): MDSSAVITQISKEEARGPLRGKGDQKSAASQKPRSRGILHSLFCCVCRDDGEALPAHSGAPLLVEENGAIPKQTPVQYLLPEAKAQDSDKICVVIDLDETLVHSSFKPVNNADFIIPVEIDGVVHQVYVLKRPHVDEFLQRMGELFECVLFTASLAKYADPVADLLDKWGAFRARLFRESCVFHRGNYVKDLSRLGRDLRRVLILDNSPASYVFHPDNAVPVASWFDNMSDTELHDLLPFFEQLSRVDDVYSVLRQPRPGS
The series is described as follows: inhibitors of CTDSP1, concentration-response testing, biochemical assay, absorbance-based, actives from ultra-high-throughput screening (AID 540297). It is filed as functional.

Series [17] addresses DNA dC->dU-editing enzyme APOBEC-3A (Homo sapiens, UniProt P31941). The series is described as follows: Dose Response confirmation of small molecule APOBEC3A DNA Deaminase Inhibitors via a fluorescence-based single-stranded DNA deaminase assay. [Related pubchem assays (depositor defined):AID493011, AID493024]. The series is classed as functional.
Series [18] addresses T5, Coagulation factor XII (Homo sapiens, UniProt P00748).
T5 sequence (P00748 whole entry): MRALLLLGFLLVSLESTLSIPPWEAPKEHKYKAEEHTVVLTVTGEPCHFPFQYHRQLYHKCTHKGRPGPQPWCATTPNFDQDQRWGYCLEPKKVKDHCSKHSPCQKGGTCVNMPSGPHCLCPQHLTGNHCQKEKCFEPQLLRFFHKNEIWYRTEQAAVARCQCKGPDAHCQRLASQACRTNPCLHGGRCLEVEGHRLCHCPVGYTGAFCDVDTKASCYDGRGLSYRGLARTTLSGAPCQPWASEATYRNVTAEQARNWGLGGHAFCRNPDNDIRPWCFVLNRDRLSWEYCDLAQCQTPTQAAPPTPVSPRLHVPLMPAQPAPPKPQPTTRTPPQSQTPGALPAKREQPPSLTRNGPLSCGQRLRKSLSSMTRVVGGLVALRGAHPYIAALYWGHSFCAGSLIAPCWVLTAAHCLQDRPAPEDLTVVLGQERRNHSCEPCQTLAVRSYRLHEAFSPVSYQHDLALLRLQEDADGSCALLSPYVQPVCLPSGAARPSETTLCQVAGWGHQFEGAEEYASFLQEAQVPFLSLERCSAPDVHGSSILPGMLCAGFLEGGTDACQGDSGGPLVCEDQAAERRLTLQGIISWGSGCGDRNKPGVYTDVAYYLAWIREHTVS
It is filed as functional.

Series [19] relates to Escherichia coli. Briefly: microbe, parasite or virus in culture. The source holds these as a separate data set.
For series [20], the target named is T6, Cysteine protease ATG4B (Homo sapiens, UniProt Q9Y4P1).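 Further: Fluorescence-based dose-response confirmation assay measuring inhibition of ATG4B activity.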
T6 sequence (Q9Y4P1 whole entry): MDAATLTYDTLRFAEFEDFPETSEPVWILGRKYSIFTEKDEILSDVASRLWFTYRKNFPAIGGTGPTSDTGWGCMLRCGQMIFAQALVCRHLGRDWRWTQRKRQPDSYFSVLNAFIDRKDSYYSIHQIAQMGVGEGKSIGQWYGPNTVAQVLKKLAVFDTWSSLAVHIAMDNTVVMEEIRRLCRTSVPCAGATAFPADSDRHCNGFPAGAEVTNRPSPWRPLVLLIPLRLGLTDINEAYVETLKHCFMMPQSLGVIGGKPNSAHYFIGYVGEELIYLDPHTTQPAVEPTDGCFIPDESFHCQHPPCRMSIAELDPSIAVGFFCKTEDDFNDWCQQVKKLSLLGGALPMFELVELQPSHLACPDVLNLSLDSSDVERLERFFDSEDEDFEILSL
The series is classed as functional.

Series [21] deals with Phospholipase A2 (Homo sapiens, UniProt P04054). It is filed as functional.
Series [22] deals with T7, Protein Tat (Human immunodeficiency virus type 1 group M subtype B (isolate HXB2)(HIV-1), UniProt P04608).
T7 sequence (P04608 whole entry): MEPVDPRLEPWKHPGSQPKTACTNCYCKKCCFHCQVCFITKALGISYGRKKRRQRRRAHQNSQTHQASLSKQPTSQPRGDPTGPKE
It is filed as functional.

In series [23] the target is Cytochrome P450 2C19 (Homo sapiens, UniProt P33261). Briefly: Cytochrome panel assay with activity outcomes. Panel member name: p450-cyp2c19 Compounds with AC50 equal or less than 10 uM are considered active. It is filed as functional. The settings on record: read-out: AC50.
The target in series [24] is Cytochrome P450 2C9 (Homo sapiens, UniProt P11712).

Cytochrome P450 2D6, sequence (P10635 whole entry): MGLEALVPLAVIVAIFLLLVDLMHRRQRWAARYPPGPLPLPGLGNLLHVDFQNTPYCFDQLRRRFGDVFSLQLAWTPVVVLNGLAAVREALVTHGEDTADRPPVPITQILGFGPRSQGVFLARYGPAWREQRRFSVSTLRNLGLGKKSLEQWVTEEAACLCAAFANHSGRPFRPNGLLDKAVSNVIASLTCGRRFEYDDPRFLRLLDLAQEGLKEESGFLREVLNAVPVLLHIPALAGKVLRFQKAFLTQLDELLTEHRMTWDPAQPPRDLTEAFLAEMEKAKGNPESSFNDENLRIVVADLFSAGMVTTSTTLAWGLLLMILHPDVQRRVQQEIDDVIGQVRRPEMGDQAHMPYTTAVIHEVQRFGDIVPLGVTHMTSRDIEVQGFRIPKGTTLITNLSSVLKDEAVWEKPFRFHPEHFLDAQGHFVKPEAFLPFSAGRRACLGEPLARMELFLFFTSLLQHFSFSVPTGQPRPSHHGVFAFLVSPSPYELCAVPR
Photoreceptor-specific nuclear receptor, sequence (Q9Y5X4 whole entry): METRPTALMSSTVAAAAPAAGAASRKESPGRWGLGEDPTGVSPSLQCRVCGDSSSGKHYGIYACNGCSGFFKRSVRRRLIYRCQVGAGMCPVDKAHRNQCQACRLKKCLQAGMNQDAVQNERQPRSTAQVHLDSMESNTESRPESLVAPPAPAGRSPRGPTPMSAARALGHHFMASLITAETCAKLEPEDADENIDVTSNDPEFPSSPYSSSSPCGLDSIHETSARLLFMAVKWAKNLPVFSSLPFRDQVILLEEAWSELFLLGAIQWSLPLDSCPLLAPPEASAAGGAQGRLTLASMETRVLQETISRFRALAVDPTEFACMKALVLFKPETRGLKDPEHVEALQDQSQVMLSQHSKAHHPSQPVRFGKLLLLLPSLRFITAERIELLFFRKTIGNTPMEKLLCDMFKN
Neurotensin receptor type 1, sequence (P30989 whole entry): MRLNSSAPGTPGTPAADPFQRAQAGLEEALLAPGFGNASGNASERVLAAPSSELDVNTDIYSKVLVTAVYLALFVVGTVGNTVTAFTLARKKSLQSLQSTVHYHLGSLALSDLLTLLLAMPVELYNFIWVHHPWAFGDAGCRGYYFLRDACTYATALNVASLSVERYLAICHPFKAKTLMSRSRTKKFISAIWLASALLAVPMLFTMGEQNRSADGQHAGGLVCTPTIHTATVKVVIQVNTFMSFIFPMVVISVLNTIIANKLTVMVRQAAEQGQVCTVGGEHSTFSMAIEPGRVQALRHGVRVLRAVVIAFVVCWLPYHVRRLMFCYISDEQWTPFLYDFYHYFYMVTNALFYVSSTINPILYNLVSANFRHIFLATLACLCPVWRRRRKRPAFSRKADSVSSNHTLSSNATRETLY
Peroxisome proliferator-activated receptor gamma/Nuclear receptor coactivator 1, sequence (P37231 whole entry): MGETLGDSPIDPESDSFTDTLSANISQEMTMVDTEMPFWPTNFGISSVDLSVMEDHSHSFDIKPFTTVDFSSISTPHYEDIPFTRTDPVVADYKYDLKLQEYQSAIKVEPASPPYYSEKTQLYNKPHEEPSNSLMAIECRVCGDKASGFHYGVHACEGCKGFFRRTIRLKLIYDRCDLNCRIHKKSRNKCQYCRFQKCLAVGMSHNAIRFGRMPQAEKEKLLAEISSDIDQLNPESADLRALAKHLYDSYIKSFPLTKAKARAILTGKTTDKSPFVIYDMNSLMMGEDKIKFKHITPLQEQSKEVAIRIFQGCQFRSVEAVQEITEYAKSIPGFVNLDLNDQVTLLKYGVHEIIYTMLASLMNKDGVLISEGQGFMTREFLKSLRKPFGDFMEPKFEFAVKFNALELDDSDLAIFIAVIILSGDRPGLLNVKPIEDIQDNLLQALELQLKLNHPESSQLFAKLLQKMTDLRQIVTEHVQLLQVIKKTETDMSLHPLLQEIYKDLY
Peroxisome proliferator-activated receptor gamma/Nuclear receptor coactivator 1, sequence (Q15788 whole entry, further chain): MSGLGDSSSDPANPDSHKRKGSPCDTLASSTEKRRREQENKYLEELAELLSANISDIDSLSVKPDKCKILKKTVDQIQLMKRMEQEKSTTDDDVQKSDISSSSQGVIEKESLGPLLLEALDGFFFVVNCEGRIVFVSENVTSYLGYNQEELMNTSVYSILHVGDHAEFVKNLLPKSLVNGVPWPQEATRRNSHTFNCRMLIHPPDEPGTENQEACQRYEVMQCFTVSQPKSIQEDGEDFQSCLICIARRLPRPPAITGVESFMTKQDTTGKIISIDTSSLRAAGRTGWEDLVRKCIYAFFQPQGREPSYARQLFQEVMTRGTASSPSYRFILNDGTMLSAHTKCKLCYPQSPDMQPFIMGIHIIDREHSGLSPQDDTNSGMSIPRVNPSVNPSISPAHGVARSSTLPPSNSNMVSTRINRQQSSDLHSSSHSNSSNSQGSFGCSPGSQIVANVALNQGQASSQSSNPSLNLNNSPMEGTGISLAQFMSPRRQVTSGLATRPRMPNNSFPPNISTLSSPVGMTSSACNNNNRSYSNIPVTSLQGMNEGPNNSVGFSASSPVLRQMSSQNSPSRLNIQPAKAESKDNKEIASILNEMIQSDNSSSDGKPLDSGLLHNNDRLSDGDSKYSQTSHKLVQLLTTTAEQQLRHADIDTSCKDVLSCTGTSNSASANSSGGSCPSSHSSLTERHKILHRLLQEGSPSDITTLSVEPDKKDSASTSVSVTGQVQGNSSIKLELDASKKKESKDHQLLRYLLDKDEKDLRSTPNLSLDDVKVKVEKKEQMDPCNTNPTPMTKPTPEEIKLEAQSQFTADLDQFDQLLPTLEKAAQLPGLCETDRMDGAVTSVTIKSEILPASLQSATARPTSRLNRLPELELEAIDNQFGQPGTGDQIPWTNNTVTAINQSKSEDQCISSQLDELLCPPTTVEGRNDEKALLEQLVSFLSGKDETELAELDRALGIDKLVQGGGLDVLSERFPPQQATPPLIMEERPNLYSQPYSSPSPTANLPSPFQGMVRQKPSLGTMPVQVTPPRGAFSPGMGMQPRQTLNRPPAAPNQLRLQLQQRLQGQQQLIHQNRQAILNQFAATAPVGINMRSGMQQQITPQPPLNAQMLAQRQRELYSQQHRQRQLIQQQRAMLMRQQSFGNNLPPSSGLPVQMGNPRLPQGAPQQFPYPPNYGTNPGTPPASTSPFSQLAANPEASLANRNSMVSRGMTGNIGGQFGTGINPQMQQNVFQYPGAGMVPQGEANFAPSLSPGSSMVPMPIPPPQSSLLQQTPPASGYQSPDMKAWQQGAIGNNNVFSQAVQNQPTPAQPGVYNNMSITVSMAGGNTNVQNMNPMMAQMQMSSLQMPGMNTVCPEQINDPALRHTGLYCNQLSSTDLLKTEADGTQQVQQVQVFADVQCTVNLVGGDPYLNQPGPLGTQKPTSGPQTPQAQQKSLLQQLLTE
Keap1/Nrf2, sequence (Q16236 whole entry, the tested form may be a part): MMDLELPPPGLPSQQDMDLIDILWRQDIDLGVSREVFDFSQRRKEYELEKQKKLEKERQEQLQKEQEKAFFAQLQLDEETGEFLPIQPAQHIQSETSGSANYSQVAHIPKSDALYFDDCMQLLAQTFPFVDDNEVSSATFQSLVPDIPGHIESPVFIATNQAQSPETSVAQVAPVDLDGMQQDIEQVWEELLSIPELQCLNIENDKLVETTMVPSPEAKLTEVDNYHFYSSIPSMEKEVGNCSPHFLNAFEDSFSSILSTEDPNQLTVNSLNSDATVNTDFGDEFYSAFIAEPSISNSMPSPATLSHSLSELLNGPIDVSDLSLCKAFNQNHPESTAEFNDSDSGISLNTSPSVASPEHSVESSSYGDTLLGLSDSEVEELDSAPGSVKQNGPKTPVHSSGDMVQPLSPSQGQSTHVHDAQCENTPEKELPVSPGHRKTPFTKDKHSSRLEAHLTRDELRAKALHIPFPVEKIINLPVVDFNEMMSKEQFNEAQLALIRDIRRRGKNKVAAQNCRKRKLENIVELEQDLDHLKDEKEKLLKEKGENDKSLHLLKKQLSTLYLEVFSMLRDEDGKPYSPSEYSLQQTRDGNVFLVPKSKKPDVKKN
Keap1/Nrf2, sequence (Q14145 whole entry, the tested form may be a part): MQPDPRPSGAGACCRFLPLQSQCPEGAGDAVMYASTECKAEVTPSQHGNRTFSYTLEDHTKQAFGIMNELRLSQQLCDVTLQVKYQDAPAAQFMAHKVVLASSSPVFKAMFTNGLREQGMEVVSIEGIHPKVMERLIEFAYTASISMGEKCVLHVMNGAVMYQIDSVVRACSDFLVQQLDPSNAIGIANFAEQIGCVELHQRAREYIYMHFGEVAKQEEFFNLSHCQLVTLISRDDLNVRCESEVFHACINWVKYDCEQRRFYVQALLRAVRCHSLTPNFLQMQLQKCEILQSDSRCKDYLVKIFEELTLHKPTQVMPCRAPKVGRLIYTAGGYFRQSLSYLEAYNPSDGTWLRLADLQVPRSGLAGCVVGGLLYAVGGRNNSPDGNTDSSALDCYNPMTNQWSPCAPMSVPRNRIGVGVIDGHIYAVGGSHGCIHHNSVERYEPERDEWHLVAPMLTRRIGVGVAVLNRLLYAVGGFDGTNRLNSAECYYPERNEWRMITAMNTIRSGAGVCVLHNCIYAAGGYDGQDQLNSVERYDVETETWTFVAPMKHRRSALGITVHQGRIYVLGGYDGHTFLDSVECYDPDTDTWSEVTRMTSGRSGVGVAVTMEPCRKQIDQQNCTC
E3 ubiquitin-protein ligase XIAP, sequence (P98170 whole entry): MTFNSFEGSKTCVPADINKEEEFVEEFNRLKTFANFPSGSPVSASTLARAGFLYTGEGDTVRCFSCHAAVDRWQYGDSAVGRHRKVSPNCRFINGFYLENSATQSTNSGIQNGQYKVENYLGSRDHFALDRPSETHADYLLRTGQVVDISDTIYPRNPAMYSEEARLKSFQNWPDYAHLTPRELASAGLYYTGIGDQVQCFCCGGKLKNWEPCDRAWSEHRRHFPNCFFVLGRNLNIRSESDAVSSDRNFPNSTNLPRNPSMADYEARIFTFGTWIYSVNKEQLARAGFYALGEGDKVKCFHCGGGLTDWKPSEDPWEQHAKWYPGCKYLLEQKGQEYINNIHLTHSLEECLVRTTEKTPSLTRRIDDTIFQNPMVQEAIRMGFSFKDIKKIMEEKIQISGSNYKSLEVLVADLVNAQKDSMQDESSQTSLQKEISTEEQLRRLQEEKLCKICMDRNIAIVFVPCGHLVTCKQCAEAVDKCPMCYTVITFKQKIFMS

A word on the IC50: it is the concentration that inhibits the measured activity by half. In the case of `C=CCc1cccc2cc(C(=O)Nc3ccc(CC(=O)O)cc3)c(=O)oc12`, the IC50 in series [1] was > 20 µM (inactive).

In general, AC50 refers to the midpoint of the concentration-response curve, whichever way the signal moves. `O=C(CCSc1ccccc1)NCC1CCCO1` (centres undefined): the half-maximal activity concentration (AC50) in [2] is 30.4 µM (active).

What is called EC50 is the concentration that produces a half-maximal response. Regarding `COc1ccc(OC)c(N/C=C2/C(=O)NC(=S)N(Cc3ccccc3)C2=O)c1`, the concentration giving a half-maximal response (EC50) was > 300 µM (inconclusive) in series [3]; > 150 µM (not active) in series [4]; 38.3 µM (inactive) in [5]; > 150 µM (not active) in series [6]; > 300 µM (not active) in series [7]; > 150 µM (not active) in series [8].

Take `C[C@]12CC[C@H]3c4ccc(O)cc4CC[C@@H]3[C@H]1C/C(=N/O)[C@H]2O`: in [9], the half-maximal activity concentration (AC50) entry was “inconclusive”.

As to `O=C(C1=C(O)C(=O)N(CCc2ccccc2)C1c1ccncc1)c1cc2ccccc2o1` (centres undefined), the values for the IC50 in [10] and in [14] were 7.02 µM (active) and > 39.8 µM (not active), respectively. The figures for the 50% effective concentration (EC50) in [11], in series [12] and in series [13] were > 79.4 µM (not active), 26.1 µM (not active) and > 79.4 µM (inactive), respectively.

Turning to `CN1CC=C2C(C#N)=C(N)C(C#N)(C#N)[C@H](c3cccs3)[C@H]2C1`, the AC50 in series [15] is > 52 µM (inactive).

`Nc1ccc(S(=O)(=O)NCCS(=O)(=O)O)cc1`: the concentration at half-maximal activity (AC50) result in series [9] is “inconclusive”.

Turning to `CC(C)[N+]12CCC(CC1)C(C(O)(c1ccccc1)c1ccccc1)C2` (centres undefined), the values for the IC50 in [16] and in series [17] were 8.96 µM (active) and 2.71 µM (active), respectively.

As to `Cc1nn(CCc2nnn[nH]2)c2nc(-c3ccc(Br)cc3)cc(C(F)(F)F)c12`, the IC50 was 4.7 µM (active) in [10], > 50 µM (inactive) in series [18] and > 39.8 µM (not active) in series [14].

`CN(CC(=O)NCc1cccnc1)S(=O)(=O)c1ccccc1`: the AC50 in [19] is 54.1 µM (active).

Turning to `CCOc1ccc(C(=O)Nc2nnc(NC(=S)Nc3ccccc3)s2)cc1`, in [5], the EC50 was 9.68 µM (active).

Turning to `CN(C)[C@@H]1C(O)=C(C(N)=O)C(=O)[C@@]2(O)C(O)=C3C(=O)c4c(O)ccc(Cl)c4[C@@](C)(O)C3C[C@@H]12` (some centres undefined), the values for the AC50 in [2] and in series [19] were 47 µM (active) and 1.2 µM (active), respectively. Further, the 50% inhibitory concentration (IC50) in series [20] was 6.14 µM (active); in [21] it was 5.75 µM (active); in series [22], > 100 µM (active).

Consider `CCn1c(=O)cc(SCC(=O)Nc2cc(OC)c(OC)c(OC)c2)c2ccccc21`, for which the figures for the EC50 in series [11], in [12] and in series [13] were > 79.4 µM (not active), 76.2 µM (not active) and > 79.4 µM (inactive), respectively. Moreover, the AC50 was 0.355 µM (inconclusive) in [23], “inconclusive” in series [9] and “inconclusive” in series [24].
